Positions count from the first letter of the chain named. Where two headings read alike, the source gives them in different places.

From publication PMC4085797, “Synthetic Inositol Phosphate Analogs Reveal that PPIP5K2 Has a Surface-Mounted Substrate Capture Site that Is a Target for Drug Discovery” (Chemistry & Biology, 2014) come the findings set out here.

Common to all, as to type: biochemical
In assay [1] the target is T1, PPIP5K2^KD (kinase domain of human PPIP5K2) (Homo sapiens, UniProt O43314).
T1 construct: The kinase domain of human PPIP5K2 (PPIP5K2^KD; residues 1–366); made in house
T1 sequence (O43314 1-366): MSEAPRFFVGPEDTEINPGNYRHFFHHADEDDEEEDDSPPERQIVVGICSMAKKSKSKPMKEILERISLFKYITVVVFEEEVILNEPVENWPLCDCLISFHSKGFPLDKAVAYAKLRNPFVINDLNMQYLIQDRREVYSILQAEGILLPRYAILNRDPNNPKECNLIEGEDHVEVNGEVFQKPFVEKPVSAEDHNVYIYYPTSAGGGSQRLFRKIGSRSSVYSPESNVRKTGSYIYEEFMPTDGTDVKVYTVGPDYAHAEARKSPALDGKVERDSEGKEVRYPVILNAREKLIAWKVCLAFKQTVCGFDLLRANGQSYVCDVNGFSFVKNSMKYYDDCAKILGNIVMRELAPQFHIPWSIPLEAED
Nature of the assay: ATPase activity of PPIP5K2KD (Pi release). Particulars: for stimulation of ATPase activity (in words): 25 μM, wild-type enzyme, Figure 2. Here is the method: (§1) The initial InsP6 concentration was either 500 nM, 70 nM, or 40 nM. Various concentrations of 2,5-di-O-Bn-InsP4 were present as indicated. Radioactivity was assessed using an in-line Flo1 detector. The ADP-driven dephosphorylation of 100 nM 1,5-[PP]2-InsP4 by PPIP5K2^KD was usually determined by a luminescence-based assay of ATP accumulation ([Riley et al., 2012; Weaver et al., 2013]). The IC50 values were determined using GraphPad Prism v6.02 (n ≥ 3). In some experiments, 1,5-[PP]2-[^3H]InsP4 dephosphorylation by PPIP5K2^KD was assayed in 50 μl buffer containing 50 mM KCl, 20 mM HEPES pH 7.0, 7 mM MgSO4, 5 mM ADP, 1 mM EDTA. Reactions were then quenched, neutralized, and analyzed with HPLC using a Partisphere SAX column ([Weaver et al., 2013]); 1 ml fractions were collected for liquid scintillation spectrometry. The ATPase activity of PPIP5K2^KD (10–270 μg/ml) was assayed from Pi release following incubation at 37°C for 120–180 min in 20 μl reaction mixtures containing 20 mM Tris/HCl, pH 7.5, 10 mM ATP, 100 mM KCl, 0.1 mM EDTA, and 13 mM MgCl2.

The target in assay [2] is T1, PPIP5K2^KD (kinase domain of human PPIP5K2). Nature of the assay: Reverse-kinase assay: ADP-driven dephosphorylation of 1,5-[PP]2-InsP4, luminescence-based assay of ATP accumulation. Particulars: for IC50: 100 nM [PP]2-InsP4, key of Figure 4B, n = 3, read-out: IC50, inhibition of ADP-driven dephosphorylation of [PP]2-InsP4. As for the experimental part:
The six compounds that were selected for the dose-response curves in the assays of ATP hydrolysis (Figure 4A) were now investigated for their effects upon diphosphoinositol polyphosphate metabolism by PPIP5K2^KD (Figure 4B). We used a high-throughput reverse-kinase assay that records ATP generated from ADP during the dephosphorylation of 100 nM 1,5-[PP]2-InsP4 ([Riley et al., 2012; Weaver et al., 2013]). Each of the tested analogs inhibited [PP]2-InsP4 metabolism by PPIP5K2^KD (Figure 4B). […] However, the inhibition by 2,5-di-O-Bn-InsP4 (10) was more unexpected because due to its bulk, and its less negative charge compared to physiological substrates, we predict it to be a poor ligand for the active site of the highly specific PPIP5K2^KD ([Wang et al., 2012]). Nevertheless, its ability to inhibit reverse-kinase activity was directly confirmed by high-performance liquid chromatography (HPLC) analysis of [PP]2-[^3H]InsP4 dephosphorylation (Figures S1A–S1C available online).
as §1

The target in another assay is T2, PPIP5K2^KD H194A mutant (Homo sapiens, UniProt O43314, H194A).
T2 construct: The kinase domain of human PPIP5K2 (PPIP5K2^KD; residues 1–366); made in house
T2 sequence (O43314 1-366 H194A): T1 sequence (O43314 1-366) with H194A
In words: ATPase activity of H194A mutant. Particulars: data not shown. As for the experimental part:
as §1

A further assay concerns the target T3, PPIP5K2^KD E192G mutant (Homo sapiens, UniProt O43314, E192G).
T3 construct: The kinase domain of human PPIP5K2 (PPIP5K2^KD; residues 1–366); made in house
T3 sequence (O43314 1-366 E192G): T1 sequence (O43314 1-366) with E192G
Nature of the assay: ATPase activity of E192G mutant. As for the experimental part:
as §1
Protein Expression, Purification, Crystallization and Structure Determination […]
The structure was further manually rebuilt with COOT and refined with PHENIX and
REFMAC from the CCP4 package. Ligand topology and parameter files were prepared using
the PRODRG server. The molecular graphics representations were prepared with the program
PyMol (Schrödinger, LLC). The 2D ligand-protein interaction diagrams were generated by
LigPlot+. Atomic coordinates and structure factors have been deposited with the Protein Data
Bank with accession codes: 4NZM, 4NZN, 4NZO.
Mutants were generated using a site-directed mutagenesis kit (Stratagene). Pairs of complementary
primers were designed as shown below, with mutagenic primers underlined (only 5’ primers are
All mutated constructs were sequenced. Mutant proteins were expressed and purified as for wild-

On to `O=C(CP(=O)(O)O)O[C@@H]1[C@@H](OP(=O)(O)O)[C@H](OP(=O)(O)O)[C@H](OCc2ccccc2)[C@H](OP(=O)(O)O)[C@H]1OP(=O)(O)O` [compound 2, 2-O-benzyl-5-O-α-phosphonoacetyl-myo-inositol 1,3,4,6-tetrakisphosphate], for which, in assay [1] (25 μM analog), the “stimulation of ATP hydrolysis” value is recorded as 9 fold. The “stimulation of ATPase activity (in words)” value in assay [1] was “strongly activated”. In addition, the concentration for a half-maximal effect (EC50) in assay [1] (dose-response, key of Figure 4A, n = 3, read-out: EC50, stimulation of ATPase activities) turned out to be 550 nM. Further, the “inhibition of [PP]2-InsP4 metabolism (in words)” value in assay [2] (100 nM 1,5-[PP]2-InsP4, Figure 4B) was “equally efficient”. For the same molecule, the 50% inhibitory concentration (IC50) in assay [2] is 420 nM. Further, the “ATPase activity in the presence of analog (in words)” value at PPIP5K2^KD H194A mutant is given as “did not exhibit any detectable ATPase activity”. Also, the “rate of ligand-stimulated ATPase activity vs wild-type (in words)” value on PPIP5K2^KD E192G mutant is “neither of these particular mutations altered the rate”.

With `O=P(O)(O)O[C@@H]1[C@@H](OCc2ccccc2)[C@H](OP(=O)(O)O)[C@@H](OP(=O)(O)O)[C@@H](OCc2ccccc2)[C@H]1OP(=O)(O)O` [compound 10, 2,5-di-O-Bn-InsP4], in assay [1], the “stimulation of ATPase activity (in words)” value is “highest degree of ATPase activity among all of the analogs”. In addition, the EC50 in assay [1] (Figure 4A, read-out: EC50, stimulation of ATPase activity) was determined as 340 nM. Besides, the IC50 in assay [2] was determined as 170 nM. Also, at PPIP5K2^KD H194A mutant, the “ATPase activity in the presence of analog (in words)” value is given as “did not exhibit any detectable ATPase activity”. Moreover, on PPIP5K2^KD E192G mutant, the “rate of ligand-stimulated ATPase activity vs wild-type (in words)” value was “neither of these particular mutations altered the rate”.

Usually EC50 stands for the concentration needed to bring the measured effect to its halfway point. The term IC50 denotes the concentration that inhibits the measured activity by half.
